Results on four molecules are retold here after patent publication US4220644A, “7-Acylamino-3-(substituted tetrazolyl thiomethyl) cephalosporins” (SmithKline Corporation, priority 1976, dated 1980).

The structures appear in SMILES notation. Values after ≈ are worked out from the molar mass of the structure shown. Where two headings read alike, the source gives them in different places. A value given as a limit tells only on which side of the number the result lay.

In experiment [1] the test system is S. aureus HH 127. Nature of the experiment: MIC in vitro (Table 1), S. aureus HH 127. The class given is cell-based. The note with it: Staphylococcus aureus, HH127, in vitro, S. aureus HH 127; read-out: MIC. From the text:
(§1) Compound names corresponding to numbers are given in the experimental section. For comparative purposes, data for cephamandole, which is 7-mandelamido-3-(1-methyltetrazol-5-ylthiomethyl)-3-cephem-4-carboxylic acid, is also given in Tables 1 and 2.

For experiment [2], the system named is S. aureus SK 23390. Description: MIC in vitro (Table 1), S. aureus SK 23390. The note with it: Staphylococcus aureus. The class given is cell-based.
Description: as §1

In experiment [3] the test system is Strep. Faecalis HH 34358. Nature of the experiment: MIC in vitro (Table 1), Strep. Faecalis HH 34358. It is filed as cell-based. To be noted: Enterococcus faecalis, in vitro, Strep. Faecalis HH 34358; read-out: MIC.
Description: as §1

The test system of experiment [4] is E. coli SK 12140. Nature of the experiment: MIC in vitro (Table 1), E. coli SK 12140. It is filed as cell-based. To be noted: Escherichia coli, SK12140, in vitro, read-out: MIC.
Description: as §1

Experiment [5] relates to E. coli HH 33779. Description: MIC in vitro (Table 1), E. coli HH 33779. It is filed as cell-based. The note with it: Escherichia coli, HH33779, in vitro, E. coli HH 33779; read-out: MIC.
Description: as §1

Experiment [6] concerns Kleb. pneumo. SK 4200. Description: MIC in vitro (Table 1), Kleb. pneumo. SK 4200. It is filed as cell-based.
Description: as §1

The test system of experiment [7] is Kleb. pneumo. SK 1200. Description: MIC in vitro (Table 1), Kleb. pneumo. SK 1200. It is filed as cell-based.
Description: as §1

Experiment [8] deals with Pseudo. sp. HH 63. Description: MIC in vitro (Table 1), Pseudo. sp. HH 63. The note with it: in vitro, Pseudo. sp. HH 63; read-out: MIC. The class given is cell-based. The text has this: (§2) The compounds of Formula I have antibacterial activity against both Gram-positive and Gram-negative organisms. […] Compound names corresponding to numbers are given in the experimental section. For comparative purposes, data for cephamandole, which is 7-mandelamido-3-(1-methyltetrazol-5-ylthiomethyl)-3-cephem-4-carboxylic acid, is also given in Tables 1 and 2.

The test system of experiment [9] is Salmonella ATCC 12176. Description: MIC in vitro (Table 1), Salmonella ATCC 12176. The class given is cell-based. The note with it: Salmonella, ATCC12176, in vitro, read-out: MIC.
Description: as §2

Experiment [10] deals with Shigella HH 117. Nature of the experiment: MIC in vitro (Table 1), Shigella HH 117. The note with it: Shigella, HH117, in vitro, read-out: MIC. The class given is cell-based.
Description: as §2

In experiment [11] the test system is Entero. aerog. ATCC 13048. Description: MIC in vitro (Table 1), Entero. aerog. ATCC 13048. The class given is cell-based.
Description: as §1

Experiment [12] relates to Serra. Marc. ATCC 13880. Description: MIC in vitro (Table 1), Serra. Marc. ATCC 13880. It is filed as cell-based. The note with it: in vitro, Serra. Marc. ATCC 13880; read-out: MIC.
Description: as §1

The subject of experiment [13] is Entero. cloacae HH 31254. Nature of the experiment: MIC in vitro (Table 1), Entero. cloacae HH 31254. The class given is cell-based. To be noted: Enterobacter cloacae.
Description: as §1

In experiment [14] the test system is Proteus morgani 179. Description: MIC in vitro (Table 1), Proteus morgani 179. The note with it: read-out: MIC. The class given is cell-based.
Description: as §1

In experiment [15] the test system is Kleb. pneumo. 4200. Description: In vivo mouse protection (Table 2), Kleb. pneumo. 4200.
Description: as §1

Experiment [16] concerns E. coli 12140. Nature of the experiment: In vivo mouse protection (Table 2), E. coli 12140.
Description: as §1

Where [17] appears, read: SK23390, in vitro, S. aureus SK 23390, read-out: MIC.
Setting [18] is: in vitro, Entero. aerog. ATCC 13048, read-out: MIC.
The mark [19] stands for this setting: Escherichia coli, 12140, po, E. coli 12140, p.o.
[20] abbreviates: Escherichia coli, 12140, sc, E. coli 12140, s.c.

The MIC is the lowest concentration that inhibits growth of the organism. The term ED50 denotes the dose at which the effect has come halfway, by size or by number of responders. Lower therefore signals greater potency. Take `NC(=O)Cn1nnnc1SCC1=C(C(=O)O)N2C(=O)C(NC(=O)[C@H](N)c3ccc(O)cc3)[C@H]2SC1` (stereo partly drawn) [VI, 7-(D-α-Amino-4-hydroxyphenylacetamido) -3-(1-carbamoylmethyltetrazol-5-ylthiomethyl) -3-cephem-4-carboxylic acid]: the MIC in [1] came out at 6.3 µg/mL (≈ 12.1 µM); in experiment [2] (setting [17]) it was 6.3 µg/mL (≈ 12.1 µM); in experiment [3], 50 µg/mL (≈ 96.1 µM); in experiment [4], 6.3 µg/mL (≈ 12.1 µM); in [5], 6.3 µg/mL (≈ 12.1 µM); in [6] (in vitro, Kleb. pneumo. SK 4200, read-out: MIC), 12.5 µg/mL (≈ 24 µM). The MIC in experiment [7] (read-out: MIC) is 6.3 µg/mL (≈ 12.1 µM); in [8], greater than 200 µg/mL; in [9] it was 1.6 µg/mL (≈ 3.07 µM); in [10] it was 3.1 µg/mL (≈ 5.96 µM); in experiment [11] (setting [18]), 6.3 µg/mL (≈ 12.1 µM); in experiment [12], 100 µg/mL (≈ 192 µM). The MIC in [13] (HH31254) amounted to 3.1 µg/mL (≈ 5.96 µM); in [14] it was 50 µg/mL (≈ 96.1 µM). Besides, the ED50 is 4 mg/kg in [15] (po, Kleb. pneumo. 4200, p.o.) and 0.92 mg/kg in experiment [15] (sc, Kleb. pneumo. 4200, s.c.).
For `NC(=O)CCCn1nnnc1SCC1=C(C(=O)O)N2C(=O)C(NC(=O)CSC(F)(F)F)[C@H]2SC1` (stereo partly shown) [XX, 7-Trifluoromethylmercaptoacetamido-3-[1-(3-carbamoylpropyl)tetrazol-5-ylthiomethyl]-3-cephem-4-carboxylic acid], the MIC came to 0.4 µg/mL (≈ 0.739 µM) in experiment [1]; 0.2 µg/mL (≈ 0.369 µM) in [2] (setting [17]); 6.3 µg/mL (≈ 11.6 µM) in experiment [3]; 0.8 µg/mL (≈ 1.48 µM) in [4]; 0.8 µg/mL (≈ 1.48 µM) in [5]; 0.4 µg/mL (≈ 0.739 µM) in experiment [6]. The MIC is 0.4 µg/mL (≈ 0.739 µM) in [7]; greater than 200 µg/mL in experiment [8]; 0.2 µg/mL (≈ 0.369 µM) in experiment [9]; 0.2 µg/mL (≈ 0.369 µM) in experiment [10]; 3.1 µg/mL (≈ 5.72 µM) in experiment [11]; 0.8 µg/mL (≈ 1.48 µM) in [13] (HH31254, in vitro, Entero. cloacae HH 31254, read-out: MIC). Further, the MIC in experiment [14] came to 12.5 µg/mL (≈ 23.1 µM). In addition, the values for the ED50 in experiment [16] (setting [19]) and in experiment [16] (setting [20]) were 21.5 mg/kg and 0.7 mg/kg, respectively.
As for `O=C(O)CCCCCn1nnnc1SCC1=C(C(=O)O)N2C(=O)C(NC(=O)[C@H](O)c3ccccc3)[C@H]2SC1` (stereo partly drawn) [XIII, 7-D-Mandelamido-3-[1-(5-carboxypentyl)tetrazol-5-ylthiomethyl]-3-cephem-4-carboxylic acid], the MIC turned out to be 3.1 µg/mL (≈ 5.51 µM) in experiment [1]; 0.8 µg/mL (≈ 1.42 µM) in experiment [2] (SK23390); 25 µg/mL (≈ 44.4 µM) in [3]; 1.6 µg/mL (≈ 2.84 µM) in experiment [4]; 3.1 µg/mL (≈ 5.51 µM) in experiment [5]; 0.8 µg/mL (≈ 1.42 µM) in [6]. Also, the MIC was 1.6 µg/mL (≈ 2.84 µM) in experiment [7] (read-out: MIC); greater than 200 µg/mL in experiment [8]; 1.6 µg/mL (≈ 2.84 µM) in [9]; 0.8 µg/mL (≈ 1.42 µM) in experiment [10]; 6.3 µg/mL (≈ 11.2 µM) in experiment [11] (setting [18]); 0.8 µg/mL (≈ 1.42 µM) in [13] (HH31254). In addition, the MIC in experiment [14] was 1.6 µg/mL (≈ 2.84 µM). For the same molecule, the ED50 in experiment [16] (setting [20]) is 1.56 mg/kg; in experiment [15] (sc, Kleb. pneumo. 4200, s.c.), 0.54 mg/kg.
`CN(C)C(=O)Cn1nnnc1SCC1=C(C(=O)O)N2C(=O)C(NC(=O)[C@H](N)c3ccc(O)cc3)C2SC1` (stereo partly drawn) [IX, 7-(D-α-Amino-4-hydroxyphenylacetamido)-3-(1-N,N-dimethylcarbamoylmethyltetrazol-5-ylthiomethyl)-3-cephem-4-carboxylic acid]: the MIC in experiment [1] came to 12.5 µg/mL (≈ 22.8 µM); in experiment [2] (SK23390), 6.3 µg/mL (≈ 11.5 µM); in [3], 25 µg/mL (≈ 45.6 µM); in experiment [4], 12.5 µg/mL (≈ 22.8 µM); in experiment [5], 12.5 µg/mL (≈ 22.8 µM); in [6], 6.3 µg/mL (≈ 11.5 µM). For the same molecule, the MIC is 6.3 µg/mL (≈ 11.5 µM) in [7]; greater than 200 µg/mL in experiment [8]; 3.1 µg/mL (≈ 5.65 µM) in experiment [9]; 6.3 µg/mL (≈ 11.5 µM) in experiment [10]; 12.5 µg/mL (≈ 22.8 µM) in experiment [11]; 200 µg/mL (≈ 365 µM) in experiment [12]. The MIC was determined as 3.1 µg/mL (≈ 5.65 µM) in experiment [13] (HH31254) and 100 µg/mL (≈ 182 µM) in experiment [14]. Moreover, the ED50 in experiment [16] (setting [19]) came to 28.5 mg/kg; in experiment [16] (setting [20]) it was 1.56 mg/kg; in [15] (po, Kleb. pneumo. 4200, p.o.) it was 18 mg/kg; in experiment [15] (sc, Kleb. pneumo. 4200, s.c.) it was 3.7 mg/kg.
